Columns and labels:
Type in all cases: binding, sheep
[1] = test system: Antibody to Immunogen VII; details: Cross-reactants at 100 ng/ml; Antibody to Immunogen VII
Experimental: (§1) An aqueous solution of each immunogen was formulated with Freund's Complete Adjuvant (FCA) to form an emulsion consisting of 2mg/ml* immunogen in 50% (v/v) FCA. Three sheep were immunised with this emulsion (1° immunisation), 0.25ml being intramuscularly injected at each of four sites in the flank of each animal. Subsequent immunizations (boosts) contained 1mg/ml* immunogen. All boosts were emulsified in 50% (v/v) Freund's Incomplete Adjuvant (FIA) and were administered in the same manner as the 1° immunisation, at monthly intervals. Blood sampling took place 7 to 14 days after each boost. *The general procedure for immunogen administration is outlined above, however, it was necessary to deviate from this protocol in some cases, due to reduced immunogen concentrations (Immunogens II, IV, VII and VIII) and/or amount available (Immunogen VIII). Any deviations from the protocol described are outlined in Table 1A below and highlighted in bold. Table 1A: Amount and volume of immunogens administered for primary and subsequent boosts
(§2) The wells of an enhanced binding 96 well polystyrene microtiter plate were coated with IgG fraction of antiserum raised to Immunogen I or II, diluted in 10mM Tris, pH8.5 (125µl/well). The appropriate antibody coating dilution was determined using standard ELISA checkerboard techniques. The plate was incubated overnight at 4°C, washed 4 times over 10 minutes with Tris buffered saline containing Tween 20 (TBST) and tapped dry. Standard solutions (JWH-018 for Immunogens I and II) were applied at 0, 0.625, 1.25, 2.5, 5, 10, 20 and 40ng/ml and 50µl of each was added to the appropriate wells. 75µl of conjugate (appropriate hapten-HRP) diluted in Tris buffer (pH 7.2) containing EDTA, D-mannitol, sucrose, thimerosal and BSA, was added to each of the wells. The appropriate dilution of conjugate was also determined using standard ELISA checkerboard techniques. The plate was incubated at 25°C for 1 hour. Excess unbound conjugate was removed by washing 6 times over a 10 minute period with TBST. 125µl of tetramethylbenzidine (TMB) substrate solution was added to each well of the plate that was then incubated for 20 minutes in the dark at room temperature. The reaction was terminated by addition of 125µl 0.2M H2SO4 to each well. The absorbance was then measured at 450nm using a microtiter plate reader. The data are inputted to a computer program called 'KC Junior'. It is a 4 parameter fit curve and allow the calculatation of concentrations between the standard runs. This program is used to calculate the IC50s by dividing the 0ng/ml OD value by 2 and obtaining the concentration value from the curve for this OD.
(§3) In a similar manner to that described above, the wells of a 96-well microtiter plate were coated with the IgG fraction of the antiserum raised to Immunogens IV, VII or VIII. Standard solutions (JWH-018 for Immunogens IV and VIII, JWH-015 for Immunogen VII) were prepared in TBST at 0, 1.25, 2.5, 5, 10, 20, 40 and 80ng/ml and conjugate was employed as detection reagent.
(§4) The data set our in Tables 3 and 4 are generated using antibodies raised against the indicated Immunogens in a competitive binding assay with the indicated tracers, using the indicated standards: Table 2
(§5) A450 = absorbance at 450nm B = absorbance at 450nm at xng/ml standard concentration B0 = absorbance at 450nm at 0ng/ml standard concentration IC50 = standard concentration which produces 50% B/B0
(§6) In order to determine the specificity of the competitive ELISAs, standard solutions of a range of structurally similar synthetic cannabinoids and their metabolites were prepared in TBST. Using the calibration curves generated and employing a single level of cross reactants, these were used to determine the cross-reactivity of each immunoassay with these substances. […]

[2] = test system: Antibody to Immunogen VIII; details: Cross-reactants at 100 ng/ml; Antibody to Immunogen VIII
Experimental: as §1, §2, §3, §4, §5, §6

Antibody to Immunogen IV = details: Cross-reactants at 100 ng/ml; Antibody to Immunogen IV
Experimental: as §1, §2, §3, §4, §5, §6

Antibody to Immunogen II = test: Competitive ELISA (Example 36), antibody RS1833B12, tracer ESC4555/LK959, standard JWH-018; details: Cross-reactants at 100 ng/ml; Antibody to Immunogen II
Experimental: as §1
as §2, with “The” for “The wells of an enhanced binding 96 well polystyrene microtiter plate were coated with IgG fraction of antiserum raised to Immunogen I or II, diluted in 10mM Tris, pH8.5 (125µl/well). The”, “Standard solutions (JWH-018 for Immunogens I and II) were applied at 0, 0.625, 1.25, 2.5, 5, 10, 20 and 40ng/ml and 50µl of each was added to the appropriate wells.” left out, “runs.” for “runs. This program is used to calculate the IC50s by dividing the 0ng/ml OD value by 2 and obtaining the concentration value from the curve for this OD.”
In a similar manner to that described above, the wells of a 96-well microtiter plate were coated with the IgG fraction of the antiserum raised to Immunogens I or II.
as §4
Using the calibration curves generated and employing a single level of cross reactants, these were used to determine the cross-reactivity of each immunoassay with these substances. These are the standards used for the IC50 and cross-reactivity data generation • Immunogen I - JWH-018 • Immunogen II - JWH-018 • Immunogen IV - JWH-018 • Immunogen VII - JWH-015 • Immunogen VIII - JWH-018 Table 4: Cross reactivity of the competitive ELISAs for synthetic cannabinoids and their metabolites

Antibody to Immunogen I = details: Cross-reactants at 100 ng/ml; Antibody to Immunogen I
Experimental: as §1, §2
In a similar manner to that described above, the wells of a 96-well microtiter plate were coated with the IgG fraction of the antiserum raised to Immunogens I or II. Standard solutions (JWH-018 for Immunogen I and II) were applied at 0, 0.625, 1.25, 2.5, 5, 10, 20 and 40ng/ml and conjugate was employed as detection reagent.
as §4, §5, §6

Row | Compound | %B/B0 [1] [%] | %B/B0 [2] [%] | %B/B0 (Antibody to Immunogen IV) [%] | %B/B0 (Antibody to Immunogen II) [%] | %B/B0 (Antibody to Immunogen I) [%]
1 | CCCCCCCn1cc(C(=O)c2cccc3ccccc23)c2ccccc21 [JWH-020] | 81.30 | 100.73 | 73.73 | 35.75 | 16.03
2 | CCCCn1cc(C(=O)c2cccc3ccccc23)c2cc(O)ccc21 [JWH-073 5-hydroxyindole metabolite] | 75.11 | 90.70 | 84.06 | 20.73 | 7.34
3 | CCC(C)Cn1cc(C(=O)c2cccc3ccccc23)c2ccccc21 (single isomer, unassigned) [JWH-018 N-(2-methylbutyl) isomer (JWH-073 2-methylbutyl homologue), JWH-018 N-(2-methylbutyl) isomer] | 58.84 | 85.16 | 29.88 | 28.60 | 3.61
4 | CCCCn1cc(C(=O)c2cccc3ccccc23)c2c(O)cccc21 [JWH-073 4-hydroxyindole metabolite] | 82.82 | 26.23 | 28.69 | 40.14 | 39.50
5 | CN1CCCCC1Cn1cc(C(=O)c2cccc3ccccc23)c2ccccc21 (centres unmarked) [AM-1220] | 49.71 | 106.65 | 86.93 | 77.46 | 4.45
6 | CCCCCn1cc(C(=O)c2cccc3c(OC)cccc23)c2ccccc21 [JWH-081 5-methoxynaphthyl isomer] | 94.16 | 26.56 | 6.24 | 60.90 | 18.51
7 | CCCCCn1cc(C(=O)c2cccc3cc(C)ccc23)c2ccccc21 [JWH 122 6-methylnaphthyl isomer] | 86.66 | 20.46 | 8.12 | 39.17 | 12.55
8 | CC(O)CCCn1cc(C(=O)c2cccc3ccccc23)c2ccccc21 (racemic) [(±)-JWH 018 N-(4-hydroxypentyl) metabolite] | 57.37 | 21.94 | 52.29 | 53.99 | 4.23
9 | CC(F)CCCn1cc(C(=O)c2cccc3ccccc23)c2ccccc21 (single isomer, unassigned) [AM-2201 N-(4-fluoropentyl) isomer] | 52.70 | 15.00 | 5.72 | 14.60 | 3.45
10 | CCCCCn1cc(C(=O)c2cccc3c(Cl)cccc23)c2ccccc21 [JWH-398 5-chloronaphthyl isomer] | 91.33 | 19.67 | 7.06 | 23.50 | 35.53
11 | O=C(O)CCCn1cc(C(=O)c2cccc3ccccc23)c2ccccc21 [JWH-073 N-butanoic acid metabolite] | 60.01 | 94.98 | 98.95 | 92.20 | 6.88
12 | CCCCCn1cc(C(=O)c2cccc3ccccc23)c2cccc(O)c21 [JWH-018 7-hydroxyindole metabolite] | 68.53 | 94.46 | 93.31 | 34.79 | 6.72
13 | CCCCCn1cc(C(=O)c2cccc3ccc(C)cc23)c2ccccc21 [JWH 122 7-methylnaphthyl isomer] | 92.44 | 38.48 | 13.48 | 38.28 | 36.46
14 | CCCCn1c(C)c(C(=O)c2cccc3ccccc23)c2ccccc21 [JWH-016] | 19.31 | 75.24 | 91.14 | 68.73 | 20.71
15 | CCCCCn1cc(C(=O)Cc2ccccc2Cl)c2ccccc21 [JWH-203] | 99.08 | 9.19 | 52.15 | – | 72.55
16 | CS(=O)(=O)O.Cc1c(C(=O)c2cccc3ccccc23)c2cccc3c2n1[C@@H](CN1CCOCC1)CO3 [Win 55,212-3 mesylate, Win 55,212-3] | 32.31 | 101.30 | 94.57 | – | 34.00
17 | CCCCn1cc(C(=O)c2ccc(OC)cc2)c2ccccc21 [RCS-4-C4 homologue] | 100.20 | 9.54 | 27.17 | – | 76.27
18 | CCCCCn1cc(C(=O)c2cccc3ccc(CC)cc23)c2ccccc21 [JWH-210 7-ethylnaphthyl isomer or JWH-234, JWH-210 7-ethylnaphthyl isomer] | 100.55 | 50.90 | 27.07 | – | 73.11
19 | COc1ccccc1CC(=O)c1cn(CCCCCC(=O)O)c2ccccc12 [JWH 250 N-(5-carboxypentyl) metabolite] | 97.60 | 89.30 | 89.88 | – | 86.21
20 | COc1ccc(CC(=O)c2cn(CCC3CCCCC3)c3ccccc23)cc1 [RCS-8 4-methoxy isomer] | 98.21 | 100.72 | 90.78 | – | 94.94
21 | CCCCCn1cc(C(=O)c2ccc(CC)c3ccccc23)c2cc(O)ccc21 [JWH-210 5-hydroxyindole metabolite] | 100.43 | 87.72 | 48.91 | – | 83.29
